PMC9775652, “Concomitant Administration of Red Ginseng Extract with Lactic Acid Bacteria Increases the Plasma Concentration of Deglycosylated Ginsenosides in Healthy Human Subjects” (Biomolecules, 2022)

Key:
[1] = Transport (permeability) of ginsenosides in CaCo-2 cell monolayers; type: in vitro ADME; conditions: human, Caco-2, CaCo-2 cell monolayers, 50 µM; B to A Papp divided by A to B Papp; read-out: Efflux ratio (ER)
LAB = assay: In vitro RGE fermentation with LAB; type: in vitro ADME; conditions: RGE incubated with LAB (1 billion CFU) for 7 days at 37 °C; result in words

CC(C)=CCC[C@](C)(O)[C@H]1CC[C@]2(C)[C@@H]1[C@H](O)C[C@@H]1[C@@]3(C)CC[C@H](O[C@@H]4O[C@H](CO)[C@@H](O)[C@H](O)[C@H]4O)C(C)(C)[C@@H]3CC[C@]12C [GRh2, ginsenoside Rh2]
efflux ratio at 50 µM [1]: 2.3
Relative abundance / metabolic activity following fermentation of RGE with LAB (LAB): significantly increased
